PMC3833349 (ACS Chemical Biology, 2013)
“Also recorded” adds a separate entry of the source.

Tests used:
[1] = molecular target: T1, FabG (Pseudomonas aeruginosa, UniProt O54438); assay: Back Assay: FabG-catalyzed oxidation of 3-OH decanoyl-NAC, NADPH fluorescence; type: biochemical
T1 sequence (O54438 1-247): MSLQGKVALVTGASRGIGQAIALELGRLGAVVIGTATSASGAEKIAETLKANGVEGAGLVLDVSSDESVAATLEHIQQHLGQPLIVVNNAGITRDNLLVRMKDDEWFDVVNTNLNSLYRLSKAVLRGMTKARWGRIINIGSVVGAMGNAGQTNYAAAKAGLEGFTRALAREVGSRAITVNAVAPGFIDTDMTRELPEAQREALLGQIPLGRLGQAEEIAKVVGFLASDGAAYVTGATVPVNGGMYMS

[2] = molecular target: T1, FabG; assay: Forward Assay: FabG-catalyzed reduction of AcAcCoA, NADPH consumption at 340 nm
[3] = test system: Staphylococcus aureus RN4220; assay: Phenotypic growth assay S. aureus; type: cell-based
[4] = Lineweaver–Burk plot, 0-200 nM FG01

“3-hydroxydecanoyl-N-acetylcysteamine [3-OH decanoyl-NAC]” was tested, and the Km ([1]; 3-OH decanoyl-NAC, not determinable, response linear at least to 0.3 mM) was > 300 µM.
In the case of `NC(=O)C1=CN([C@@H]2O[C@H](COP(=O)(O)OP(=O)(O)OC[C@H]3O[C@@H](n4cnc5c(N)ncnc54)[C@H](OP(=O)(O)O)[C@@H]3O)[C@@H](O)[C@H]2O)C=CC1` [NADPH, reference compound], the Km ([2]; NADPH, in the presence of 4 mM AcAcCoA) is reported as 290 ± 30 µM.
For `NC(=O)c1ccc[n+]([C@@H]2O[C@H](COP(=O)([O-])OP(=O)(O)OC[C@H]3O[C@@H](n4cnc5c(N)ncnc54)[C@H](OP(=O)(O)O)[C@@H]3O)[C@@H](O)[C@H]2O)c1` [NADP^+], the Km ([1]; NADP+, in the presence of 0.3 mM 3-OH decanoyl-NAC) was 290 µM.
In the case of `Cn1ncc2c(NCCO)nc(Nc3ccc(F)c(F)c3)nc21` [FG39, 2-[[6-(3,4-difluoroanilino)-1-methylpyrazolo[3,4-d]pyrimidin-4-yl]amino]ethanol], the “inhibition of cell growth” value ([3]; S. aureus, 100 μM) is reported as 35%.
`c1ccc(-c2nc(-n3cnnc3)c3ccccc3n2)cc1` [FG01, 2-phenyl-4-(1,2,4-triazol-4-yl)quinazoline] was tested, and the “mode of inhibition with respect to AcAcCoA” value [2, 4] was “mixed inhibition pattern” and the “mode of inhibition with respect to NADPH” value [2, 4] was “noncompetitive mode of inhibition; also recorded: noncompetitive inhibition pattern”.
With `COc1ccccc1Nc1cccc2nccnc12` [FG48, N-(2-methoxyphenyl)quinoxalin-5-amine] the “effect on growth of S. aureus” value ([3]; concentration/effect curve) was “completely inhibited the growth”.
